According to PubChem BioAssay (NCI):
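These data come from cells grown in 96-well plates and exposed to compound for 48 hours at five concentrations. At the GI50, growth is halved. Definition used: TGI = concentration required for complete inhibition of growth.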

Assays:
Experiment in all cases: NCI anticancer screen, dose series, 48 h
[1] = tested on: OVCAR-8 ovarian
[2] = tested on: NCI-H226 lung
[3] = tested on: CCRF-CEM leukemia
[4] = tested on: UO-31 renal
[5] = tested on: A549 NSCLC
[6] = tested on: RPMI-8226 leukemia
[7] = tested on: SK-MEL-2 melanoma
[8] = tested on: HT29 colon
[9] = tested on: DU-145 prostate
[10] = tested on: BT-549 breast

CC1=C(C(=O)Nc2cc(F)c(F)cc2F)C(c2ccc([N+](=O)[O-])cc2)C(C(=O)Nc2cc(F)c(F)cc2F)=C(C)N1
TGI [1]: > 100 µM
TGI [2]: > 100 µM
TGI [3]: 78.7 µM
TGI [4]: 70.6 µM
TGI [5]: > 100 µM
TGI [6]: 45.1 µM
TGI [7]: > 100 µM
TGI [8]: > 100 µM

c1ccc2c3c([nH]c2c1)C(c1ccc(C2NCCc4c2[nH]c2ccccc42)cc1)NCC3 (stereo not drawn)
GI50 [2]: 1.96 µM
TGI [2]: 4.23 µM
GI50 [3]: 0.452 µM
TGI [3]: 2.03 µM
GI50 [4]: 1.04 µM
TGI [4]: 2.26 µM
GI50 [9]: 0.749 µM
TGI [9]: 2.13 µM
GI50 [5]: 1.1 µM
TGI [5]: 2.54 µM
GI50 [6]: 0.34 µM
TGI [6]: 1.09 µM
GI50 [10]: 11.1 µM
TGI [10]: 24.4 µM
GI50 [7]: 1.7 µM
TGI [7]: 3.57 µM
GI50 [8]: 0.28 µM
TGI [8]: 0.735 µM

CC[n+]1c(/C=C/C=C2\N(C)c3ccccc3C2(C)C)sc2ccccc21
GI50 [1]: 4.31 µM
TGI [1]: 8.54 µM
GI50 [2]: 4.55 µM
TGI [2]: 12.2 µM
GI50 [3]: 4.96 µM
TGI [3]: 18.1 µM
GI50 [4]: 3.55 µM
TGI [4]: 7.26 µM
GI50 [9]: 4.15 µM
TGI [9]: 7.76 µM
GI50 [5]: 4.77 µM
TGI [5]: 10 µM
GI50 [6]: 2.99 µM
TGI [6]: 10.1 µM
GI50 [10]: 4.3 µM
TGI [10]: 8.6 µM
GI50 [7]: 5.23 µM
TGI [7]: 11 µM
GI50 [8]: 4.74 µM
TGI [8]: 9.74 µM

CCOc1ccc(NC(=O)CC2C(=O)Nc3ccccc3S2(=O)=O)cc1 (stereo not drawn)
TGI [1]: > 100 µM
TGI [2]: 90.3 µM
TGI [4]: > 100 µM
TGI [5]: > 100 µM
TGI [6]: > 100 µM
TGI [7]: > 100 µM
TGI [8]: > 100 µM

O=C(NNc1ccccc1)/C(=C/c1ccc2c(c1)OCO2)NC(=O)c1ccccc1
TGI [1]: > 100 µM
TGI [2]: > 100 µM
TGI [3]: > 100 µM
TGI [4]: > 100 µM
TGI [5]: > 100 µM
TGI [6]: > 100 µM
TGI [7]: > 100 µM
TGI [8]: > 100 µM

CC(=O)C1=C(O)C2C3c4c[nH]c5cccc(c45)CC3C(C)(C)N2C1=O (stereo not drawn)
TGI [2]: 71.4 µM
TGI [3]: > 100 µM
TGI [4]: 81.6 µM
TGI [5]: > 100 µM
TGI [6]: > 100 µM
TGI [7]: 44.6 µM
TGI [8]: > 100 µM

CSC1NC(c2ccc(Cl)cc2)=C(C#N)C(=O)N1C1OCC(OC(C)=O)C(OC(C)=O)C1OC(C)=O (stereo not drawn)
TGI [1]: > 100 µM
TGI [2]: > 100 µM
TGI [4]: > 100 µM
TGI [9]: > 100 µM
TGI [6]: > 100 µM
TGI [10]: > 100 µM
TGI [8]: > 100 µM

CCN1CCN(C(=O)[C@]23CCC(C)(C)C[C@@H]2C2=CC[C@@H]4[C@@]5(C)C/C(=C/c6ccncc6)C(=O)C(C)(C)[C@@H]5CC[C@@]4(C)[C@]2(C)CC3)CC1
GI50 [2]: 2 µM
TGI [2]: 4.31 µM
GI50 [3]: 1.7 µM
TGI [3]: 5.32 µM
GI50 [4]: 1.24 µM
TGI [4]: 2.5 µM
GI50 [9]: 1.67 µM
TGI [9]: 3.19 µM
GI50 [5]: 1.66 µM
TGI [5]: 4.65 µM
GI50 [6]: 1.25 µM
TGI [6]: 4.64 µM
GI50 [10]: 1.53 µM
TGI [10]: 3.04 µM
GI50 [7]: 1.73 µM
TGI [7]: 3.33 µM
GI50 [8]: 1.38 µM
TGI [8]: 3.14 µM

CC(=O)NNc1nc(C)c(C(=O)NNC(=O)C(=O)Nc2ccc(Cl)cc2Cl)s1
TGI [1]: > 100 µM
TGI [2]: > 100 µM
TGI [3]: 56.2 µM
TGI [4]: 98.2 µM
TGI [5]: > 100 µM
TGI [6]: > 100 µM
TGI [7]: > 100 µM
TGI [8]: > 100 µM

COc1cccc(-c2cc(=O)c3ccccc3[nH]2)c1
TGI [1]: > 72.7 µM
TGI [2]: > 29.6 µM
TGI [3]: > 100 µM
TGI [4]: > 100 µM
TGI [5]: > 100 µM
TGI [6]: > 100 µM
TGI [7]: > 100 µM
TGI [8]: > 100 µM

COc1ccc(/C=C/C(=O)c2sc(-n3nc(-c4ccccc4)cc3-c3ccccc3)nc2C)cc1
GI50 [1]: > 100 µM
TGI [1]: > 100 µM
GI50 [2]: > 100 µM
TGI [2]: > 100 µM
GI50 [3]: > 100 µM
TGI [3]: > 100 µM
TGI [4]: > 100 µM
GI50 [5]: > 100 µM
TGI [5]: > 100 µM
TGI [6]: > 100 µM
GI50 [7]: > 100 µM
TGI [7]: > 100 µM
TGI [8]: > 100 µM

CC(C)(C)C(C#N)(C#N)c1ccc(C(C#N)(C#N)C(C)(C)C)nn1
TGI [1]: > 100 µM
TGI [3]: > 100 µM
TGI [4]: > 100 µM
TGI [5]: > 100 µM
TGI [6]: > 100 µM
TGI [7]: > 100 µM
TGI [8]: > 100 µM

CN1c2ccccc2N(C(=O)c2ccccc2)C(CC(=O)O)c2cccn21 (stereo not drawn)
TGI [1]: > 100 µM
TGI [3]: > 100 µM
TGI [4]: > 100 µM
TGI [5]: > 100 µM
TGI [6]: > 100 µM
TGI [7]: > 100 µM
TGI [8]: > 100 µM

C[C@]12CCC3[C@@H](CC[C@@H]4c5nonc5CC[C@]34C)C1CC[C@@H]2O (stereo partly drawn)
TGI [1]: > 100 µM
TGI [2]: > 100 µM
TGI [3]: 54.8 µM
TGI [5]: 85.2 µM
TGI [6]: 38.9 µM
TGI [7]: 48.3 µM
TGI [8]: > 100 µM

c1ccc2c(c1)cc1n2CC2CN=NC12 (stereo not drawn)
TGI [1]: > 100 µM
TGI [2]: > 100 µM
TGI [4]: > 100 µM
TGI [5]: > 100 µM
TGI [6]: > 100 µM
TGI [7]: > 100 µM
TGI [8]: > 100 µM

CN1CCN(CCCOc2cccc3nc(Nc4ccc(Cl)c(C(F)(F)F)c4)ccc23)CC1
GI50 [2]: 2.07 µM
TGI [2]: 4.89 µM
GI50 [4]: 1.46 µM
TGI [4]: 2.88 µM
GI50 [9]: 1.81 µM
TGI [9]: 3.27 µM
GI50 [5]: 1.72 µM
TGI [5]: 3.66 µM
GI50 [10]: 1.71 µM
TGI [10]: 3.31 µM
GI50 [7]: 2.06 µM
TGI [7]: 4.49 µM

CN(c1ccccc1)c1c(Cl)c(=O)oc2c1ccc1occc12
TGI [1]: > 100 µM
TGI [2]: > 100 µM
TGI [3]: > 100 µM
TGI [4]: > 100 µM
TGI [5]: > 100 µM
TGI [6]: > 100 µM
TGI [7]: > 100 µM
TGI [8]: > 100 µM

O=C(CN1C(=O)S/C(=C\C(Cl)=C\c2ccccc2)C1=O)NC1C=CS(=O)(=O)C1 (stereo not drawn)
GI50 [1]: 0.939 µM
TGI [1]: > 100 µM
GI50 [3]: 0.327 µM
TGI [3]: > 100 µM
GI50 [4]: 1.37 µM
TGI [4]: 2.79 µM
GI50 [9]: 1.83 µM
TGI [9]: 4.27 µM
GI50 [5]: 3 µM
TGI [5]: > 100 µM
GI50 [6]: 0.477 µM
TGI [6]: 4.33 µM
GI50 [10]: 1.75 µM
TGI [10]: 4.78 µM
GI50 [7]: 2.11 µM
TGI [7]: 5.22 µM
GI50 [8]: 1.92 µM
TGI [8]: 6.72 µM

C=CCc1cc(OC)c2c(c1)C(OC)CC(c1ccc(OC)c(OC)c1)O2 (stereo not drawn)
TGI [1]: > 100 µM
TGI [3]: > 100 µM
TGI [4]: > 100 µM
TGI [5]: > 100 µM
TGI [6]: > 100 µM
TGI [7]: > 100 µM
TGI [8]: > 100 µM

CC1(C)C(=O)C(C)(C)C1=S
TGI [1]: > 100 µM
TGI [2]: > 100 µM
TGI [3]: > 100 µM
TGI [4]: > 100 µM
TGI [5]: > 100 µM
TGI [6]: > 100 µM
TGI [7]: > 100 µM
TGI [8]: > 100 µM
